Source: patent US10709708B2, “Method of treating cancer with a combination of MER tyrosine kinase inhibitor and an epidermal growth factor receptor (EGFR) inhibitor” (Emory University, priority 2016, dated 2020)
Where two headings read alike, the source gives them in different places.

Tests used:
[1] = system: mutant EGFR NSCLC cells & EGFR TKI-resistant derivatives; experiment: Viable cell counts of mutant EGFR NSCLC cells and EGFR TKI-resistant derivatives; assay type: cell-based; settings: H1975, H1650 and AZD-9291 or erlotinib resistant derivatives
Procedure: The indicated cell lines are shown in FIG. 15A (H1975), FIG. 15B (H1650), FIG. 15C (H1975^AZD-R), and FIG. 15D (H1650^AZD-R).
The indicated cell lines are shown in FIG. 16A (H1975), FIG. 16B (H1650), FIG. 16C (H4011), FIG. 16D (H1975^AZD-R), FIG. 16E (H1650^AZD-R), and FIG. 16F (H1650^ERL-R).
NSCLC cells were cultured in the presence of the indicated compound(s) or an equivalent volume of vehicle (DMSO) only and the numbers of viable cells were counted at the indicated intervals using the Incucyte ZOOM live cell imaging system.

A549 cells = experiment: Expansion of A549 cells in culture, Incucyte ZOOM live cell imaging; assay type: cell-based; settings: for reduction of A549 cell number: agents alone or together at the same concentrations
[2] = system: mutant EGFR NSCLC cell lines; experiment: Cell counts of mutant EGFR NSCLC cell lines; assay type: cell-based; settings: mutant EGFR NSCLC cell lines (H1650, H4006, PC9, HCC827)
Procedure: (§1) NSCLC and normal bronchial epithelial (BEAS2B) cell lines were cultured with CO-1686 for 60 hours and confluency was determined (BEAS2B) or cells were counted (NSCLC cell lines) and normalized to vehicle-controls.
For treatment with CO-1686, the cell lines are shown in FIG. 9A (H1650), FIG. 9B (H4006), and FIG. 9C (PC9). For treatment with AZD-9291, the cell lines are shown in FIG. 9D (H1650) and FIG. 9E (HCC827). The indicated NSCLC cell lines were treated with CO-1686, AZD-9291, and/or MRX-2843 and cells were counted every 2 hours.

A549 shMERTK cells = experiment: Confluence of A549 shMERTK cells, Incucyte ZOOM live cell imaging; assay type: cell-based; settings: A549 shMERTK cell line, CO-1686 vs vehicle
Source text: FIGS. 5A and 5B show inhibition of MERTK using shRNA sensitized A549 cells to CO-1686. FIG. 5A is an immunoblot showing decreased MERTK expression mediated by shRNA in A549 cells. […] FIG. 6A is an immunoblot showing decreased EGFR expression mediated by siRNA in A549 and […] cells.

[3] = system: wild-type EGFR NSCLC cell lines; experiment: Cell counts of wild-type EGFR NSCLC cell lines after 60 hours; assay type: cell-based
Procedure: as §1
The indicated NSCLC cell lines were treated with CO-1686 and/or MRX-2843 for 60 hours and cells were counted and normalized to vehicle controls.

[4] = system: mutant forms of EGFR including T790M; settings: Walter et al. 2013; cited from earlier work
[5] = system: wild-type EGFR NSCLC cell lines; settings: as reported by Walter; cited from earlier work
[6] = system: mutant EGFR NSCLC cell lines; settings: EGFR mutation incl. T790M (H1975); 1 μM; as reported by Walter; cited from earlier work

Clc1ccc(C2(c3ccc(-c4cn[nH]c4)cc3)CCNCC2)cc1 [AT7867]
anti-tumor activity in combination with MRX-2843 [1]: synergistic anti-tumor activity

C=CC(=O)Nc1cc(Nc2nccc(-c3cn(C)c4ccccc34)n2)c(OC)cc1N(C)CCN(C)C [AZD-9291, Osimertinib]
interaction with MRX-2843 (A549 cells; A549 cells, combined with MRX-2843): synergized | interaction with MRX-2843 [2]: synergize

Nc1nc(Nc2ccc3c(c2)CCC(N2CCCC2)CC3)nn1-c1cc2c(nn1)-c1ccccc1CCC2 (stereo not drawn) [R428]
interaction with CO-1686 (A549 cells; A549 cells, combined with CO-1686): synergized

C=CC(=O)Nc1cccc(Nc2nc(Nc3ccc(N4CCN(C(C)=O)CC4)cc3OC)ncc2C(F)(F)F)c1 [CO-1686, Rociletinib]
reduction of A549 cell number (A549 cells; A549 cells): 20.9±5.7% | reduction in cell number (A549 cells; wild-type A549 cells, CO-1686 vs vehicle, confluence): 9.9±2.89% | reduction in cell number (A549 shMERTK cells): 23.4±0.22% | interaction with MRX-2843 ([3]; broad spectrum of wild-type EGFR NSCLC cell lines): synergizes | sensitivity of cell lines to CO-1686 ([3]; wild-type EGFR cell lines compared to mutant EGFR lines): resistant | interaction with MRX-2843 [2]: synergize | IC50 [4]: 0.021 µM | sensitivity of cell lines to CO-1686 [5]: resistant | sensitivity of cell lines to CO-1686 [6]: clear sensitivity

CN1CCN(Cc2ccc(-c3cn([C@H]4CC[C@H](O)CC4)c4nc(NCCC5CC5)ncc34)cc2)CC1 [MRX-2843]
reduction of A549 cell number (A549 cells; A549 cells): 13.2±4.1%

CN1CCC(CNc2ccc3ncc(-c4cccc(OC(F)(F)F)c4)n3n2)CC1 [SGI-1776]
anti-tumor activity in combination with MRX-2843 [1]: synergistic anti-tumor activity
